Reference: patent US20260199484A1, “PROTAC DEGRADERS OF MLLT1 AND/OR MLLT3” (DARK BLUE THERAPEUTICS LTD, priority 2024, published 2026)

How the values were obtained:
MLLT1 = target: T1, MLLT1 (Homo sapiens, UniProt Q03111); test: MLLT1 degradation assay in MV4-11 cells (JESS, 24 h); assay type: cell-based; parameters: endogenous in cells; host or cells: MV4-11 (ATCC CRL-9591); settings: vs DMSO control
T1 sequence (Q03111 1-559): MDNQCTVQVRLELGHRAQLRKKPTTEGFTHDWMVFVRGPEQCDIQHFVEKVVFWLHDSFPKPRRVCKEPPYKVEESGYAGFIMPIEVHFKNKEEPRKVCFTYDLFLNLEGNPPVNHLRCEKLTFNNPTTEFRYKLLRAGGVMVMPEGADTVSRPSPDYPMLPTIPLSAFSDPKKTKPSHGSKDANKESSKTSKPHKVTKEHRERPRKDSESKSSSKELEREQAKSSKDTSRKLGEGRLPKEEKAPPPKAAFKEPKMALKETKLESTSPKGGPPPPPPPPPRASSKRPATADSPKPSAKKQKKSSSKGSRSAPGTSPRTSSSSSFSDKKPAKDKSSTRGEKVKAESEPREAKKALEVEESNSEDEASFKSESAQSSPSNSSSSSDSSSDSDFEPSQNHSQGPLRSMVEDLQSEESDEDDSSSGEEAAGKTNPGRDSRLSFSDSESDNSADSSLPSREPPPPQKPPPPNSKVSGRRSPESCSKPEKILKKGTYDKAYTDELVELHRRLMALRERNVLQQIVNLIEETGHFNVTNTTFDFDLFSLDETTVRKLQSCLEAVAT
Outline: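 MV4-11 cells treated at 1000, 100 and 10 nM (0.1% DMSO) for 24 h at 37° C; lysates (4 ug protein) run on JESS capillary immunoassay with MLLT1 and GAPDH antibodies. Peak areas give % degradation versus DMSO, binned A (≥75%) to D (<25%).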

MV4-11 cells = test: MV4-11 cellular proliferative assay, Assay Format B (CTG 2.0, 168 h); assay type: cell-based; settings: Homo sapiens, Assay format B, 168 h, read-out: IC50 (MV4-11 cellular proliferative assay)
Protocol: MV4-11 cells at a confluency of ~50-80% was used for cell growth assay. 600 cells/well in a 384-well opaque cell culture plate (6007680; Perkin Elmer) were seeded in 40 μL of complete medium (IMDM+10% FBS+1× Penicillin-Streptomycin). Cells were incubated overnight at 37° C., 5% CO2. 10 mM DMSO stocks were prepared, cells were treated with 10 concentrations of test compounds starting from 1 uM or 100 nM, 3-fold dilution in 10 uL (5× concentration) of complete medium. Final DMSO concentration was 0.3%. Culture plates were centrifuged at 40×g, 30s. Cells were incubated with compounds for 168 h (7 days). After 7 days, 20 uL CTG 2.0 reagent (G9242; Promega) was added per well and luminescence reading was taken in Envision Xcite 2105 multimode plate reader. Data was analyzed in GraphPad Prism 10.0 and data was shown as % viability with respect to DMSO control and dose-response curves were generated using four parameter logistic regression. Assay quality was determined by z-factor calculation using positive and negative controls.

SMILES | MLLT1% Degradation @ 0.01 μM (MLLT1) | MLLT1% Degradation @ 0.1 μM (MLLT1) | MLLT1% Degradation @ 1 μM (MLLT1) | IC50 (MV4-11 cells) [nM]
Cc1c([C@H]2CCCN2C)[nH]c2cc(NC(=O)c3ccc4c(C)nn(CCCCCCCC#Cc5cccc6c5CN(C5CCC(=O)NC5=O)C6=O)c4c3)ncc12 (stereo partly drawn) [Example 57, 1-(9-(2-(2,6-dioxopiperidin-3-yl)-1-oxoisoindolin-4-yl)non-8-yn-1-yl)-3-methyl-N-(3-methyl-2-((R)-1-methylpyrrolidin-2-yl)-1H-pyrrolo[3,2-c]pyridin-6-yl)-1H-indazole-6-carboxamide] | A (Category A: A≥75% degradation) | A (Category A: A≥75% degradation) | A (Category A: A≥75% degradation) | < 100
Cc1nn(CCCCCCCC#Cc2cccc(C3CCC(=O)NC3=O)c2F)c2cc(C(=O)Nc3cc4[nH]c([C@H]5CCCN5C)cc4cn3)ccc12 (stereo partly drawn) [Example 61, 1-(9-(3-(2,6-dioxopiperidin-3-yl)-2-fluorophenyl)non-8-yn-1-yl)-3-methyl-N-(2-((R)-1-methylpyrrolidin-2-yl)-1H-pyrrolo [3,2-c]pyridin-6-yl)-1H-indazole-6-carboxamide] | C (Category C: 25%≤C<50% degradation) | A (Category A: A≥75% degradation) | A (Category A: A≥75% degradation) | < 100
Cc1nn(CCCCCCCC#Cc2cccc3c2CN(C2CCC(=O)NC2=O)C3=O)c2cc(C(=O)Nc3cc4[nH]c([C@H]5CCCN5C)c(C#N)c4cn3)ccc12 (stereo partly drawn) [Example 66, N-(3-cyano-2-((R)-1-methylpyrrolidin-2-yl)-1H-pyrrolo[3,2-c]pyridin-6-yl)-1-(9-(2-(2,6-dioxopiperidin-3-yl)-1-oxoisoindolin-4-yl)non-8-yn-1-yl)-3-methyl-1H-indazole-6-carboxamide] | A (Category A: A≥75% degradation) | A (Category A: A≥75% degradation) | A (Category A: A≥75% degradation) | < 100
Cc1nn(CCCCCCCC#Cc2cccc3c2CN([C@@H]2CCC(=O)NC2=O)C3=O)c2cc(C(=O)Nc3cc4[nH]c([C@H]5CCCN5C)cc4cn3)c(F)cc12 (relative stereo) [Example 103, 1-(9-(2-((rel-R)-2,6-dioxopiperidin-3-yl)-1-oxoisoindolin-4-yl)non-8-yn-1-yl)-5-fluoro-3-methyl-N-(2-((R)-1-methylpyrrolidin-2-yl)-1H-pyrrolo[3,2-c]pyridin-6-yl)-1H-indazole-6-carboxamide] | A (Category A: A≥75% degradation) | A (Category A: A≥75% degradation) | A (Category A: A≥75% degradation) | < 100
CN1CCC[C@@H]1c1cc2cnc(NC(=O)c3ccc4c(C5CC5)nn(CCCCCCCC#Cc5cccc6c5CN(C5CCC(=O)NC5=O)C6=O)c4c3)cc2[nH]1 (stereo partly drawn) [Example 59, 3-cyclopropyl-1-(9-(2-(2,6-dioxopiperidin-3-yl)-1-oxoisoindolin-4-yl)non-8-yn-1-yl)-N-(2-((R)-1-methylpyrrolidin-2-yl)-1H-pyrrolo [3,2-c]pyridin-6-yl)-1H-indazole-6-carboxamide] | A (Category A: A≥75% degradation) | A (Category A: A≥75% degradation) | A (Category A: A≥75% degradation) | < 100
Cc1nn(C2CCN(CC3CCN(c4ccc5c(c4)C(=O)N(C4CCC(=O)NC4=O)C5=O)CC3)CC2)c2cc(C(=O)Nc3cc4[nH]c([C@H]5CCCN5C)cc4cn3)ccc12 (stereo partly drawn) [Example 70, 1-(1-((1-(2-(2,6-dioxopiperidin-3-yl)-1,3-dioxoisoindolin-5-yl)piperidin-4-yl)methyl)piperidin-4-yl)-3-methyl-N-(2-((R)-1-methylpyrrolidin-2-yl)-1H-pyrrolo[3,2-c]pyridin-6-yl)-1H-indazole-6-carboxamide] | A (Category A: A≥75% degradation) | A (Category A: A≥75% degradation) | A (Category A: A≥75% degradation) | < 100
Cc1nn(C2CCC(CCCC#Cc3cccc4c3CN(C3CCC(=O)NC3=O)C4=O)CC2)c2cc(C(=O)Nc3cc4[nH]c([C@H]5CCCN5C)cc4cn3)ccc12 (stereo partly drawn) [Example 74, 1-(4-(5-(2-(2,6-dioxopiperidin-3-yl)-1-oxoisoindolin-4-yl)pent-4-yn-1-yl)cyclohexyl)-3-methyl-N-(2-((R)-1-methylpyrrolidin-2-yl)-1H-pyrrolo[3,2-c]pyridin-6-yl)-1H-indazole-6-carboxamide] | B (Category B: 50%≤B<75% degradation) | B (Category B: 50%≤B<75% degradation) | A (Category A: A≥75% degradation) | < 100

Second part, the molecule after the results:

MLLT1% Degradation @ 0.01 μM (MLLT1) | MLLT1% Degradation @ 0.1 μM (MLLT1) | MLLT1% Degradation @ 1 μM (MLLT1) | IC50 (MV4-11 cells) [nM] | SMILES
A (Category A: A≥75% degradation) | A (Category A: A≥75% degradation) | A (Category A: A≥75% degradation) | < 100 | Cc1nn(C2CCN(CC3CCN(c4cc5c(cc4F)C(=O)N(C4CCC(=O)NC4=O)C5=O)CC3)CC2)c2cc(C(=O)Nc3cc4[nH]c([C@H]5CCCN5C)cc4cn3)ccc12 (stereo partly drawn) [Example 69, 1-(1-((1-(2-(2,6-dioxopiperidin-3-yl)-6-fluoro-1,3-dioxoisoindolin-5-yl)piperidin-4-yl)methyl)piperidin-4-yl)-3-methyl-N-(2-((R)-1-methylpyrrolidin-2-yl)-1H-pyrrolo[3,2-c]pyridin-6-yl)-1H-indazole-6-carboxamide]
B (Category B: 50%≤B<75% degradation) | A (Category A: A≥75% degradation) | C (Category C: 25%≤C<50% degradation) | < 100 | Cc1nn(CC2CCN(c3ccc4c(c3)C(=O)N(C3CCC(=O)NC3=O)C4=O)CC2)c2cc(C(=O)Nc3cc4[nH]c([C@H]5CCCN5C)cc4cn3)ccc12 (stereo partly drawn) [Example 104, 1-((1-(2-(2,6-dioxopiperidin-3-yl)-1,3-dioxoisoindolin-5-yl)piperidin-4-yl)methyl)-3-methyl-N-(2-((R)-1-methylpyrrolidin-2-yl)-1H-pyrrolo[3,2-c]pyridin-6-yl)-1H-indazole-6-carboxamide]
A (Category A: A≥75% degradation) | A (Category A: A≥75% degradation) | B (Category B: 50%≤B<75% degradation) | < 100 | Cc1nn(C2CCN(CC#Cc3cccc4c3CN(C3CCC(=O)NC3=O)C4=O)CC2)c2cc(C(=O)Nc3cc4[nH]c([C@H]5CCCN5C)cc4cn3)ccc12 (stereo partly drawn) [Example 68, 1-(1-(3-(2-(2,6-dioxopiperidin-3-yl)-1-oxoisoindolin-4-yl)prop-2-yn-1-yl)piperidin-4-yl)-3-methyl-N-(2-((R)-1-methylpyrrolidin-2-yl)-1H-pyrrolo[3,2-c]pyridin-6-yl)-1H-indazole-6-carboxamide]
A (Category A: A≥75% degradation) | A (Category A: A≥75% degradation) | A (Category A: A≥75% degradation) | < 100 | Cc1nn(CC2CCN(c3cccc4c3CN(C3CCC(=O)NC3=O)C4=O)CC2)c2cc(C(=O)Nc3cc4[nH]c([C@H]5CCCN5C)cc4cn3)ccc12 (stereo partly drawn) [Example 106, 1-((1-(2-(2,6-dioxopiperidin-3-yl)-1-oxoisoindolin-4-yl)piperidin-4-yl)methyl)-3-methyl-N-(2-((R)-1-methylpyrrolidin-2-yl)-1H-pyrrolo[3,2-c]pyridin-6-yl)-1H-indazole-6-carboxamide]
A (Category A: A≥75% degradation) | A (Category A: A≥75% degradation) | A (Category A: A≥75% degradation) | < 100 | Cc1nn(CCCCCCCC#Cc2cccc3c2CN([C@@H]2CCC(=O)NC2=O)C3=O)c2cc(C(=O)Nc3cc4[nH]c([C@H]5CCCN5C)cc4cn3)ccc12 (relative stereo) [Example 99, 1-(9-(2-((rel-R)-2,6-dioxopiperidin-3-yl)-1-oxoisoindolin-4-yl)non-8-yn-1-yl)-3-methyl-N-(2-((R)-1-methylpyrrolidin-2-yl)-1H-pyrrolo[3,2-c]pyridin-6-yl)-1H-indazole-6-carboxamide]
